{
  "source": "ChEMBL document CHEMBL6074681",
  "about": "“High potency 3-carboxy-2-methylbenzofuran pendrin inhibitors as novel diuretics” (Eur J Med Chem, 2025)",
  "key": {"[1]": {"biological_target": "T1, Solute carrier family 26 member 6 (Homo sapiens) (UniProt Q9BXS9)", "T1 sequence (whole entry)": "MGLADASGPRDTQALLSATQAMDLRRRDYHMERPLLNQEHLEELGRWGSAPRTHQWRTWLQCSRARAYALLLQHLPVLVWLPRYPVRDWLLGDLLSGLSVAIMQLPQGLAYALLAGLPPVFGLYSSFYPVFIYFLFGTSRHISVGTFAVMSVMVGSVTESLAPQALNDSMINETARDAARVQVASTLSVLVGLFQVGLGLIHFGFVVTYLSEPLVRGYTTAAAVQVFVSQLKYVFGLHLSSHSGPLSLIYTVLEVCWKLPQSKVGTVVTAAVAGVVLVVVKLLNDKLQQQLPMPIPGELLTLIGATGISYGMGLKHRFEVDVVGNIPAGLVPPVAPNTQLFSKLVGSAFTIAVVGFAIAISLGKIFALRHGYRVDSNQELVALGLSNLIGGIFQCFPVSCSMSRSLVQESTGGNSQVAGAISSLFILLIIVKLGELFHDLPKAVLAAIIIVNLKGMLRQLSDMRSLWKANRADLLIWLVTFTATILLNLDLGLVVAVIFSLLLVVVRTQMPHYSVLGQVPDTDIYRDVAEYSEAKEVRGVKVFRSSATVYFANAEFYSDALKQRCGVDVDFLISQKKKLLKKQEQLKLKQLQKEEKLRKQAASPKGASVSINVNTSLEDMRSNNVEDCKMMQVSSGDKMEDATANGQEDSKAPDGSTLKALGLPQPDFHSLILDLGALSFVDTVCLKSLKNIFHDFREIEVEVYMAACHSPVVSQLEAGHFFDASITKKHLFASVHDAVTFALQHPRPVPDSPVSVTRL", "assay": "Inhibition of SLC26A6 (unknown origin) transfected in rat FRT cells at 25 uM by YFP fluorescence quenching assay", "format": "cell-based"}, "[2]": {"biological_target": "T2, Chloride anion exchanger (Homo sapiens) (UniProt P40879)", "T2 sequence (whole entry)": "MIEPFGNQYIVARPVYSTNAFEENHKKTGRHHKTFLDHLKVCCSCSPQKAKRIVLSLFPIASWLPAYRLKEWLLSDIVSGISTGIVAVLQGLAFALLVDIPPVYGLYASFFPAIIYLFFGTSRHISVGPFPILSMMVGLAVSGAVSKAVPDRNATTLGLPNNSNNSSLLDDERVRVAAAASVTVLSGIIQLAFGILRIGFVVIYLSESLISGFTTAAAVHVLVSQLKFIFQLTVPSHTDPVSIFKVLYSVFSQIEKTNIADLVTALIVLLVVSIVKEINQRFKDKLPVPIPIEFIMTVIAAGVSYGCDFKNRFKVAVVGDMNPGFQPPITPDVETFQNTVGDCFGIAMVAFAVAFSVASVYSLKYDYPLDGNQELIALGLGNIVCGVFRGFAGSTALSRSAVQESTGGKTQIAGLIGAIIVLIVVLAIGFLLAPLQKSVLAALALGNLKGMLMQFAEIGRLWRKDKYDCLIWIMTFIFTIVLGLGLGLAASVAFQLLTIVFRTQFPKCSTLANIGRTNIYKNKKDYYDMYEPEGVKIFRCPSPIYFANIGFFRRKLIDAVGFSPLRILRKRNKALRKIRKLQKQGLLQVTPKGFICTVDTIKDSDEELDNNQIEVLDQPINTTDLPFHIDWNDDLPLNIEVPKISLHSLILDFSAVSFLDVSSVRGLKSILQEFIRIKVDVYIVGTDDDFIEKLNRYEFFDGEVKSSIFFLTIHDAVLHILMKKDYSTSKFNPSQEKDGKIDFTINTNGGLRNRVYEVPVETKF", "assay": "Inhibition of SLC26A3 (unknown origin) transfected in rat FRT cells at 25 uM by YFP fluorescence quenching assay", "format": "cell-based"}, "[3]": {"biological_target": "Cystic fibrosis transmembrane conductance regulator (Homo sapiens) (UniProt P13569)", "sequence (P13569 whole entry, looked up)": "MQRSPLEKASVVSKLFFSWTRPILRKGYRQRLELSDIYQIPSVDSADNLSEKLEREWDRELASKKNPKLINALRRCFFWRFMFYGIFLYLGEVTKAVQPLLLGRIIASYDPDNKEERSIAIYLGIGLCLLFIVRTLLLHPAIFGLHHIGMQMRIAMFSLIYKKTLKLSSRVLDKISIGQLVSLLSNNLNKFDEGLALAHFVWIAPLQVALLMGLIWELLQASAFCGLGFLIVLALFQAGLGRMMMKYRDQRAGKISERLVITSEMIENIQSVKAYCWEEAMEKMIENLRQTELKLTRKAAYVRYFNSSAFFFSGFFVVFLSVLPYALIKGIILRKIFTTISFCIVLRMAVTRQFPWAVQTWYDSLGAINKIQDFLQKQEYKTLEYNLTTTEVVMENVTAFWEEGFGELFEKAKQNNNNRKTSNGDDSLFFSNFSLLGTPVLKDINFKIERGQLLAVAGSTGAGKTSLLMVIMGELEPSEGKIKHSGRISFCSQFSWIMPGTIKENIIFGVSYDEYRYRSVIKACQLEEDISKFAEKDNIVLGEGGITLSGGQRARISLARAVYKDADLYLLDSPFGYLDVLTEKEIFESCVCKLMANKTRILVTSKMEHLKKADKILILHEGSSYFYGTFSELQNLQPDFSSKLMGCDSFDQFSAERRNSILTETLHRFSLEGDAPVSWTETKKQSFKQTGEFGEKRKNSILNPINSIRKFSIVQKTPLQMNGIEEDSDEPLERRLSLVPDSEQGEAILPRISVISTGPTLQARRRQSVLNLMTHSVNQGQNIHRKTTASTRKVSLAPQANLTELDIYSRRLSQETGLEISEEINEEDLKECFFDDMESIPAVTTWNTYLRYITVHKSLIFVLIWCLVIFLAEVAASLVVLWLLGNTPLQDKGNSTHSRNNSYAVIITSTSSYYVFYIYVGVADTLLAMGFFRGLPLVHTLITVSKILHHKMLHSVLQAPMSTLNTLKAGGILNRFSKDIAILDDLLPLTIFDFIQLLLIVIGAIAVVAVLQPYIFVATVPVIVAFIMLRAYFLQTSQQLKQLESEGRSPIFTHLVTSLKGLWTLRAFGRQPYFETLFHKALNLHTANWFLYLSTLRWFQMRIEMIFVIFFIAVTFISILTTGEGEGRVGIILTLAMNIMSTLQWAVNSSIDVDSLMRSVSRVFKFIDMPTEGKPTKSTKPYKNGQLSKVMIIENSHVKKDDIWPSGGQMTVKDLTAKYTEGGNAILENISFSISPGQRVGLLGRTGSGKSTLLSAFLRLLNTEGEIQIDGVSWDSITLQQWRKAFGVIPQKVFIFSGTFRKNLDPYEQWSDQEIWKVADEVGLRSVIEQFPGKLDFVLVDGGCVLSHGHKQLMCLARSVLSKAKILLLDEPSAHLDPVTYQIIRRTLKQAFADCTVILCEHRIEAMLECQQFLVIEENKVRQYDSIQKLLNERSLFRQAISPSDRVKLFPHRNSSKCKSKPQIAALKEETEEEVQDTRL", "assay": "Inhibition of CFTR (unknown origin) transfected in rat FRT cells at 25 uM by YFP fluorescence quenching assay", "format": "cell-based"}, "[4]": {"assay": "Cytotoxicity against rat FRT cells assessed as cell viability at 10 uM measured after 24 hrs by Alamar blue dye based assay", "format": "toxicity"}, "[5]": {"biological_target": "T3, Pendrin (Homo sapiens) (UniProt O43511)", "T3 sequence (whole entry)": "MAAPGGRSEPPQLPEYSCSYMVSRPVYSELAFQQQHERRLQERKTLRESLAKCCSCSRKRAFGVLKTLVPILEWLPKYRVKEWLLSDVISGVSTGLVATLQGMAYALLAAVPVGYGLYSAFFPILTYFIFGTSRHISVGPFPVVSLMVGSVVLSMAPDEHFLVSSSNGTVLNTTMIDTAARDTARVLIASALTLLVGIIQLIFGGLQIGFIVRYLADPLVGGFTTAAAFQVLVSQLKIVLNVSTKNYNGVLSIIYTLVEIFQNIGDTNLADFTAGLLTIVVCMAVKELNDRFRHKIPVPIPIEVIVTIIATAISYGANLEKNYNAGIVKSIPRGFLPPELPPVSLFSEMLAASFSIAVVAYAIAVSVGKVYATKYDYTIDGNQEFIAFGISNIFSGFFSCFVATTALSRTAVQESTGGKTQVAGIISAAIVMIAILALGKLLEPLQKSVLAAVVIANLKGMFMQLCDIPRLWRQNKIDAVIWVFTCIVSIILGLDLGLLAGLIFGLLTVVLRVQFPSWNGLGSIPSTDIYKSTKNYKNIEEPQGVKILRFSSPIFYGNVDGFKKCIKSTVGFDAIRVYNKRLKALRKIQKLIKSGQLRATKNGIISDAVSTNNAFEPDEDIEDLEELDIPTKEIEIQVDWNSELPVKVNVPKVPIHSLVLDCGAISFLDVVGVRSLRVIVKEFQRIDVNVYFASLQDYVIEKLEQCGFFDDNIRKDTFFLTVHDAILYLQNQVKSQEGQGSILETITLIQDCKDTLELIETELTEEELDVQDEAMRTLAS", "assay": "Inhibition of Pendrin (unknown origin) transfected in rat FRT cells at 25 uM by YFP fluorescence quenching assay relative to control", "format": "cell-based"}, "[6]": {"biological_target": "T4, Pendrin (Homo sapiens, UniProt O43511)", "T4 sequence (O43511 whole entry)": "T3 sequence (whole entry)", "assay": "Inhibition of Pendrin (unknown origin)"}, "[7]": {"biological_target": "T3, Pendrin (Homo sapiens)", "assay": "Potency index, ratio of PDSinh-A01 IC50 to test compound IC50 for Pendrin (unknown origin) transfected in rat FRT cells assessed as reduction in Cl-/I- ions exchange by YFP fluorescence quenching assay", "format": "cell-based"}, "[8]": {"biological_target": "T4, Pendrin", "assay": "Inhibition of Pendrin (unknown origin) transfected in rat FRT cells assessed as reduction in Cl-/I- ions exchange by YFP fluorescence quenching assay", "format": "cell-based"}, "[9]": {"tested_on": "Mus musculus", "assay": "Effect on urine volume in mouse model at 10 mg/kg, ip measured for 3 hrs", "format": "functional, organism-based"}, "[10]": {"biological_target": "T5, Solute carrier family 26 member 6 (Homo sapiens, UniProt Q9BXS9)", "T5 sequence (Q9BXS9 whole entry)": "T1 sequence (whole entry)", "assay": "Inhibition of SLC26A6 (unknown origin) transfected in rat FRT cells by YFP fluorescence quenching assay", "format": "cell-based"}, "[11]": {"assay": "Selectivity index, ratio of IC50 for SLC26A6 (unknown origin) transfected in rat FRT cells to IC50 for Pendrin (unknown origin) transfected in rat FRT cells", "format": "cell-based"}, "[12]": {"tested_on": "Mus musculus", "assay": "Effect on osmolality in mouse model at 10 mg/kg, ip measured for 3 hrs", "format": "functional, organism-based"}, "[13]": {"tested_on": "Mus musculus", "assay": "Potentiation of Furosemide-induced diuretic effect in mouse model at 10 mg/kg, ip measured for 3 hrs relative to control", "format": "functional"}, "[14]": {"tested_on": "Mus musculus", "assay": "Effect on osmolality in mouse model at 10 mg/kg, ip measured for 3 hrs in presence of Furosemide", "format": "functional, organism-based"}},
  "note": "Activity calls are given as the source filed them. The rule behind the calls is not given here.",
  "data": [
    {"smiles": "Cc1oc2ccc(OCc3ccccc3Cl)cc2c1C(=O)O", "values": [
      {"measurement": "inhibition", "setting": "[1]", "value": "Active; Exhibited Minimal Inhibition"},
      {"measurement": "inhibition", "setting": "[2]", "value": "inactive"},
      {"measurement": "inhibition", "setting": "[3]", "value": "Active; Exhibited Minimal Effect"},
      {"measurement": "Activity", "setting": "[4]", "value": "Non-toxic"},
      {"measurement": "inhibition", "setting": "[5]", "value": 100, "unit": "%"}
    ]},
    {"smiles": "Cn1nc(COc2cccc(F)c2)c2c1CCN(C(=O)Nc1ccc(Cl)cc1)C2", "values": [
      {"measurement": "IC50", "setting": "[6]", "value": 12.5, "unit": "µM"}
    ]},
    {"smiles": "Cc1oc2ccc(OCc3ccc(Br)cc3)cc2c1C(=O)O", "values": [
      {"measurement": "Ratio IC50", "setting": "[7]", "value": 3},
      {"measurement": "IC50", "setting": "[8]", "value": 4.1, "unit": "µM"}
    ]},
    {"smiles": "Cc1oc2ccc(OCc3ccccc3)cc2c1C(=O)O", "values": [
      {"measurement": "IC50", "setting": "[8]", "value": 3.1, "unit": "µM"}
    ]},
    {"smiles": "Cc1oc2ccc(OCc3ccc(Cl)cc3)cc2c1C(=O)O", "values": [
      {"measurement": "IC50", "setting": "[8]", "value": 5, "unit": "µM"}
    ]},
    {"smiles": "Cc1ccccc1COc1ccc2oc(C)c(C(=O)O)c2c1", "values": [
      {"measurement": "IC50", "setting": "[8]", "value": 1.44, "unit": "µM"}
    ]},
    {"smiles": "Cc1oc2ccc(OCc3cccc(Cl)c3)cc2c1C(=O)O", "values": [
      {"measurement": "IC50", "setting": "[8]", "value": 4.8, "unit": "µM"}
    ]},
    {"smiles": "Cc1oc2ccc(OCc3cccc(Br)c3)cc2c1C(=O)O", "values": [
      {"measurement": "IC50", "setting": "[8]", "value": 8.2, "unit": "µM"}
    ]},
    {"smiles": "Cc1oc2ccc(OCc3cc(F)ccc3Cl)cc2c1C(=O)O", "values": [
      {"measurement": "inhibition", "setting": "[1]", "value": "Active"},
      {"measurement": "Activity", "setting": "[9]", "value": "No effect"},
      {"measurement": "inhibition", "setting": "[2]", "value": "inactive"},
      {"measurement": "IC50", "setting": "[10]", "value": 10, "unit": "µM"},
      {"measurement": "IC50", "setting": "[8]", "value": 0.48, "unit": "µM"},
      {"measurement": "Ratio IC50", "setting": "[11]", "value": 20},
      {"measurement": "Activity", "setting": "[12]", "value": "No effect"},
      {"measurement": "Activity", "setting": "[13]", "value": 45, "unit": "%"},
      {"measurement": "inhibition", "setting": "[3]", "value": "Active; Exhibited Minimal Effect"},
      {"measurement": "Activity", "setting": "[4]", "value": "Non-toxic"},
      {"measurement": "inhibition", "setting": "[5]", "value": 100, "unit": "%"},
      {"measurement": "Activity", "setting": "[14]", "value": "No effect"}
    ]}
  ]
}
